Measurements: patent US20250127752A1, “REDUCED REBOUND EFFECTS IN SUBJECTS TREATED FOR OVERWEIGHT OR OBESITY” (Empros Pharma AB, priority 2021, published 2025)
Read-outs that look alike come from different tables or passages of the source.

Tests used:
[1] = oral, conventional dosage form; cited from earlier work
[2] = Pre-dose (trough) plasma level of orlistat and acarbose at steady state, week 26; assay type: in vivo, human; conditions: steady state week 26, patients on active treatment
[3] = cited from earlier work; for Placebo adjusted reduction of body weight: oral administration for 6 months; for Additional weight loss relative to placebo: at one year, on average
[4] = cited from earlier work
[5] = cited from earlier work; remark: listed apart in the source

For `OCCN1C[C@H](O)[C@@H](O)[C@H](O)[C@H]1CO` [Miglitol], the “Fraction of the dose absorbed” value [1] is given as 100%.

For `C[C@H]1O[C@H](O[C@H]2[C@H](O)[C@@H](O)[C@@H](O[C@H]3[C@H](O)[C@@H](O)C(O)O[C@@H]3CO)O[C@@H]2CO)[C@H](O)[C@@H](O)[C@@H]1N[C@H]1C=C(CO)[C@@H](O)[C@H](O)[C@H]1O` (stereo partly drawn) [acarbose, O-4,6-Dideoxy-4-[[(1S,4R,5S,6S)-4,5,6-trihydroxy-3-(hydroxymethyl)cyclohex-2-enyl]amino]-α-D-glucopyranosyl-(1→4)-O-α-D-gluco-pyranosyl-(1→4)-D-glucopyranose], the “Patients in whom low plasma levels were measured” value [2] is given as 3 of 75 and the “Placebo adjusted reduction of body weight” value [3] is given as “approx. 0.5%”.

In the case of `C[C@H]1CNCCc2ccc(Cl)cc21` [lorcaserin], the “Additional weight loss relative to placebo” value [3] is listed as about 3%, the “Body weight decrease more than placebo” value ([3]; human, in vivo) is listed as “about 3.2 kg” and the “Body weight decrease more than placebo, of initial body weight” value ([3]; human, in vivo) is listed as “about 3.2%”.

In the case of `CCCCCCCCCCC[C@@H](C[C@@H]1OC(=O)[C@H]1CCCCCC)OC(=O)[C@H](CC(C)C)NC=O` [orlistat, (S)—((S)-1-((2S,3S)-3-Hexyl-4-oxooxetan-2-yl)tridecan-2-yl) 2-formamido-4-methylpentanoate], the “Patients in whom low plasma levels were measured” value [2] is listed as 27 of 75, the “Additional weight loss relative to placebo” value [3] is listed as about 3% and the “Approximate relative weight loss” value ([3]; conventional dosage forms) is listed as 2-3%. The “Placebo adjusted reduction of body weight” value [3] was 2-3%, the “Relative weight loss, best case scenario” value ([3]; versus placebo 6%) was 10% and the “Solubility in water” value [4] was “practically insoluble in water”. The Water solubility [4] was “less than 0.001 g/ml”, the “Fraction of the dose absorbed” value [1] was under 3% and the Plasma exposure [1] was under 5 ng/mL. For the same molecule, the “Patients complaining about GI side-effects (diarrhea, oily spotting, fecal urgency)” value ([5]; clinical trials, conventional dosage form) was at least 25%, the “Participants reporting faecal incontinence” value ([5]; similar 6-month trial) was 5% and the “Participants reporting faecal incontinence” value ([5]; trials of longer duration) was “approximately 18%”.
